Laboratory results: paper PMC7221892, “In Vitro and in Vivo Activity of mTOR Kinase and PI3K Inhibitors Against Leishmania donovani and Trypanosoma brucei” (Molecules, 2020)
Where “and” joins values, the source holds several entries; their conditions need not be identical. Identical values can stand only once.

Experiments:
[1] = test system: intracellular L. donovani; experiment: Pilot high-content screening against intracellular L. donovani at 10 μM; assay type: cell-based; details: screening concentration 10 µM
Procedure: (§1) PMA-treated THP-1 human monocytic cells were seeded at 0.8 × 10^4 cells per well in a 384-well culture plate (Greiner Bio-One, Kremsmünster, Austria) in RPMI-1640 complete medium supplemented with 10% FBS. After 48 h of incubation at 37 °C in the presence of 5% CO2, the promastigotes of L. donovani that were incubated with lectin for 30 min at 28 °C were added to the cells at a parasite to cell ratio of 20:1. […] The negative control consisted of THP-1 infected with the parasite with only 0.5% DMSO. After 72 h, the cells that were infected and treated with the drug were washed with serum-free RPMI-1640 medium. The cells and parasites were stained using 5 μM DRAQ5 and 4% PFA. The images were acquired based on reading using an Operetta® automated microscope (PerkinElmer, Inc., Waltham, MA 02451 USA). They were further analyzed using Columbus^TM (PerkinElmer, Inc. Waltham, MA, USA) software to quantify parasite numbers, host cell numbers, and infection ratios. In brief, large-sized nucleus of host cells was first detected using Draq-5 (Thermo Fisher, Rockford, IL, USA) signal and the host cell boundary masking was performed using the low-intensity signals from cytosols (additional feature of Draq-5). Then the small-sized nucleus signal by Draq-5 was used to identify parasites within the area of masked host cell. Infection ratio (IR) was determined with the value of the number of infected cells divided by total number of cells and the average number of parasites per macrophage (P/φ) was defined by the value of the number of parasites divided by the number of infected cells in the acquired image. The average IR value of the negative control wells was calculated as 0.53. Compounds selected based on the screening results were further assessed in a dose-dilution manner (two-fold serial dilution for 20 points starting from 100 μM) using the same method.

THP-1 cells = experiment: Host cell viability in pilot screening at 10 μM; assay type: cell-based, human; details: screening concentration 10 µM
Procedure: as §1, with “Infection ratio (IR) was determined with the value of the number of infected cells divided by total number of cells and the average number of parasites per macrophage (P/φ) was defined by the value of the number of parasites divided by the number of infected cells in the acquired image.” left out, “Compounds selected based on the screening results were further assessed in a dose-dilution manner (two-fold serial dilution for 20 points starting from 100 μM) using the same method.” left out

[2] = test system: intracellular L. donovani; experiment: Intracellular L. donovani in THP-1 cells, dose-dilution high-content imaging assay; assay type: cell-based; details: for EC50: Leishmania donovani, THP-1 cells infected with L. donovani, 72 h, duplicate measurements, read-out: Intracellular L. donovani EC50 ± SD
Procedure: as §1, with “image.” for “image. The average IR value of the negative control wells was calculated as 0.53. Compounds selected based on the screening results were further assessed in a dose-dilution manner (two-fold serial dilution for 20 points starting from 100 μM) using the same method.”
(§2) All of the half maximal effective concentrations (EC50) and the half maximal cytotoxic concentrations (CC50) values were calculated using two independent experiments. The dose-response curves were fitted using GraphPad Prism 6 software (GraphPad Software, San Diego, CA, USA) by using a sigmoidal dose-response equation with a variable hill slope option.

[3] = Host cell cytotoxicity (CC50) in infected THP-1 cells, dose-dilution assay; assay type: cell-based; details: human, infected THP-1 host cells, read-out: THP-1 Cell CC50 ± SD
Procedure: as §1, with “image.” for “image. The average IR value of the negative control wells was calculated as 0.53. Compounds selected based on the screening results were further assessed in a dose-dilution manner (two-fold serial dilution for 20 points starting from 100 μM) using the same method.”
as §2

[4] = test system: L. donovani promastigotes; experiment: L. donovani promastigote growth inhibition (resazurin); assay type: cell-based; details: Leishmania donovani, 72 h, 3 days exposure, read-out: L. donovani Promastigote EC50 ± SD
Procedure: (§3) L. donovani promastigote and T. b. brucei Lister 427 BSF growth inhibition were assayed by measuring the conversion of resazurin to resorufin. The assays were performed in 384-well plates that were seeded with L. donovani promastigotes or T. brucei 427 BSF (5 × 10^4 cells per well). After seeding, the parasites were exposed to the compounds for 3 days. Resazurin sodium salt (200 μM; R7017; Sigma-Aldrich, St. Louis, MO, USA) was then added, and the samples were incubated for 5 h. After incubation, the parasites were fixed using 4% paraformaldehyde, and the plates were analyzed using a Victor3^TM plate reader (PerkinElmer, Inc., Waltham, MA, USA) at 590 nm (emission) and 530 nm (excitation). […] Pentamidine was used for the T. b. brucei Lister 427 BSF growth inhibition assay.
as §2

[5] = test system: T. b. brucei Lister 427 BSF; experiment: T. b. brucei Lister 427 bloodstream form growth inhibition (resazurin); assay type: cell-based; details: Trypanosoma brucei, 72 h, 3 days exposure, read-out: T. brucei Lister 427 BSF EC50 ± SD
Procedure: as §3, §2

L. donovani = experiment: VL mouse model (L. donovani-infected BALB/c mice); assay type: in vivo; details: miltefosine 30, Torin2 15, dactolisib 50, NVP-BGT226 5 mg/kg; for Inhibition of L. donovani In Vivo (%) (Mean ± SD): liver parasite burden vs vehicle, per os 5 days; for LDU in the Liver (Mean ± SD): once daily per os for 5 days from day 7 post-infection
Procedure: The highest dose for each compound without showing adverse effects was selected based on literature search. The vehicle for the compounds was 5% N-methylpyrrolidone, 15% polyvinylpyrrolidone, and 80% deionized water. Drug dosing solutions were freshly prepared each day. All drugs were administered once daily for 5 days via the per os route. On day 16 post-infection, all animals were humanely euthanized and assessed microscopically using Giemsa-stained liver imprints. Parasite burdens were measured by counting (blinded to treatment) the number of amastigotes per 1000 cell nuclei and multiplying this number by the liver weight (mg) (Leishman-Donovan Unit: LDU). The LDU values for the drug-treated samples were compared to those of the untreated samples, and the percent inhibition values were calculated.

T. b. brucei Lister 427 = experiment: HAT mouse model (acute T. b. brucei Lister 427 infection of BALB/c mice); assay type: in vivo; details: for parasitemia in T. brucei-infected mice: five consecutive days of treatment, Torin2 15 mg/kg, NVP-BGT226 5 mg/kg
Procedure: BALB/c mice were infected with T. b. brucei Lister 427 (4 × 10^4 cells) by intraperitoneal (i.p.) injection. […] Parasitemia was evaluated daily for 2 weeks by blood collection from the mouse tail vein, and survival was monitored for 1 month. Mice showing impaired health status and/or with a parasite load > 10^8 cells per mL of blood were euthanized.

[6] = Pilot toxicity study in mice; assay type: in vivo; details: 5 mg/kg dose
Procedure: For this proof of concept in vivo study, L. donovani infected BALB/c model was used to evaluate the ability of compound to reduce parasites in liver. […] Using the same dosing scheme, the efficacies of the compounds were evaluated in VL mouse model.

Row | Structure (SMILES) | inhibition of intracellular parasite survival in screening [1] | toxicity against the host cell in screening (THP-1 cells) | EC50 [2] | Selectivity Index (SI) ([2]; SI = THP-1 CC50/Intracellular L. donovani EC50) | CC50 at 72 h [3] | EC50 [4] | EC50 [5] | Inhibition of L. donovani In Vivo (%) (Mean ± SD) (L. donovani; 5 mg/kg) | LDU in the Liver (Mean ± SD) (L. donovani) | mice surviving during 14 days post-infection (T. b. brucei Lister 427; 5 mg/kg per os for 5 days) | mice surviving more than 25 days without parasitemia (T. b. brucei Lister 427; 5 mg/kg per os for 5 days) | delay in survival over the Torin2-treated group (T. b. brucei Lister 427; NVP-BGT226 5 mg/kg vs Torin2 15 mg/kg) | parasitemia in T. brucei-infected mice (T. b. brucei Lister 427) | toxicity in vivo [6] | Inhibition of L. donovani In Vivo (%) (Mean ± SD) (L. donovani) | mice surviving at least 13 days after infection (T. b. brucei Lister 427; 15 mg/kg per os for 5 days)
1 | COc1ncc(-c2ccc3nccc(-c4ccnnc4)c3c2)cc1NS(=O)(=O)c1ccc(F)cc1F [GSK2126458] | found active | some toxicity against the host cell |  |  |  |  |  |  |  |  |  |  |  |  |  | 
2 | COc1ccc(-c2ccc3ncc4c(c3c2)n(-c2ccc(N3CCNCC3)c(C(F)(F)F)c2)c(=O)n4C)cn1 [NVP-BGT226] |  |  | 140 ± 20 nM | 19 | 2660 ± 460 nM | 9 ± 1 nM | 0.054 ± 0.003 nM | 54% and 54 ± 3.18% | 516 ± 36 LDU | 80% | 20% | 1 to 2 days | reduced to under the limits of detection | no sign of toxicity was observed |  | 
3 | Nc1ccc(-c2ccc3ncc4ccc(=O)n(-c5cccc(C(F)(F)F)c5)c4c3c2)cn1 [Torin2, 9-(6-Aminopyridin-3-yl)-1-(3-(trifluoromethyl)phenyl)benzo[h][1,6]naphthyridin-2(1H)-one] |  |  | 250 ± 30 nM |  |  | 30 ± 4 nM | 110 ± 10 nM |  | 735 ± 66 LDU |  |  |  | parasitemia was observed still by day 5 |  | 35% and 35 ± 5.81% | 80%
